Data on 39 compounds can be found in ChEMBL document CHEMBL1155131, “Discovery of conformationally rigid 3-azabicyclo[3.1.0]hexane-derived dipeptidyl peptidase-IV inhibitors” (Bioorg Med Chem Lett, 2008).

As usually defined, the IC50 is the concentration that inhibits the measured activity by half. High values mean weaker potency, low ones greater potency.

Each structure is given as a SMILES string.

Test [1] can be described thus: Antiproliferative activity against T cells. The settings on record: T-cell.
For test [2], the target named is Dipeptidyl peptidase 2 (Homo sapiens, UniProt Q9UHL4). Put plainly: Inhibition of DPP2.
In test [3] the target is T1, Prolyl endopeptidase (Homo sapiens, UniProt P48147).
T1 sequence (P48147 whole entry): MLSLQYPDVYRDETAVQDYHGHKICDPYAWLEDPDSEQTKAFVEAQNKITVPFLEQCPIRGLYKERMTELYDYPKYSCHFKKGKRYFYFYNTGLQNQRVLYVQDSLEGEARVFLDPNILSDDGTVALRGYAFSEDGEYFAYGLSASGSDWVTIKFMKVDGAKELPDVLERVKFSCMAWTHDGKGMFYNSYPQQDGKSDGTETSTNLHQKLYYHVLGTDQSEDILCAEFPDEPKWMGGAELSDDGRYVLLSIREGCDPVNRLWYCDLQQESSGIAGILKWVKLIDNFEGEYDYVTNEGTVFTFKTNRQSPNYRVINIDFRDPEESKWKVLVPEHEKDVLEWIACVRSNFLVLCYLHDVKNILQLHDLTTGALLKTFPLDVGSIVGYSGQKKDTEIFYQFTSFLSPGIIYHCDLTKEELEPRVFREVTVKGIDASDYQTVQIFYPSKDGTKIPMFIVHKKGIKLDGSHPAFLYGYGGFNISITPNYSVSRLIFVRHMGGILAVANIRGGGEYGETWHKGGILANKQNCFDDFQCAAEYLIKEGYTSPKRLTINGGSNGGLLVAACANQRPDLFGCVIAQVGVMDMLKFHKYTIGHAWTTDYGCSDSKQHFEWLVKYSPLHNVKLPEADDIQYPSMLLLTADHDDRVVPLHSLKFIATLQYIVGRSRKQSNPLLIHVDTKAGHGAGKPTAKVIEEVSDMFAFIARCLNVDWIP
Briefly: Inhibition of PPCE.

The target in test [4] is Dipeptidyl peptidase 8 (Homo sapiens, UniProt Q6V1X1). Put plainly: Inhibition of DPP8.
Chain of Dipeptidyl peptidase 8 (Q6V1X1 whole entry): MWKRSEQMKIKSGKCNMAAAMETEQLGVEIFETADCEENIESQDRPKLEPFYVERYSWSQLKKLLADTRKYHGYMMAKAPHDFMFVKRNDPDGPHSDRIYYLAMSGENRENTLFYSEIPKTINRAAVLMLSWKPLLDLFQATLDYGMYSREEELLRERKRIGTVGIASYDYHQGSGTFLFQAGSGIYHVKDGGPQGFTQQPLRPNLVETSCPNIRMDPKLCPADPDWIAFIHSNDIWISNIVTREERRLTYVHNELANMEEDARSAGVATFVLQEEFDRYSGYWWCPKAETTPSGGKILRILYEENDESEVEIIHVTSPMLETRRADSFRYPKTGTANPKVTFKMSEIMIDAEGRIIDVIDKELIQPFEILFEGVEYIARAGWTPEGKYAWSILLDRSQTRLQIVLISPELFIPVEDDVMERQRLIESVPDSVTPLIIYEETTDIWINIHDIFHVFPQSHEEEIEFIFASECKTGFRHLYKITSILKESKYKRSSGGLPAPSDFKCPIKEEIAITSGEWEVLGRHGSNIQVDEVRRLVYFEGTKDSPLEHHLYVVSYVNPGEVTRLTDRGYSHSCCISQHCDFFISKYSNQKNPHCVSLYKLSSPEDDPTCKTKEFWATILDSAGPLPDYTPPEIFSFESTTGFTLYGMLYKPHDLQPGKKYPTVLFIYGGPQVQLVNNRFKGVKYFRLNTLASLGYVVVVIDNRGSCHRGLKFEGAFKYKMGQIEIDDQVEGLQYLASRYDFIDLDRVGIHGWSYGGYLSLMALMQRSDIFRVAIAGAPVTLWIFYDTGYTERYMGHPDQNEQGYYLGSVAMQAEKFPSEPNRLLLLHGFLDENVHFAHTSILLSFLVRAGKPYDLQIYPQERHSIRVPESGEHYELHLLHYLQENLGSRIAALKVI
Test [5] addresses Dipeptidyl peptidase 4 (Homo sapiens, UniProt P27487). Briefly: Inhibition of human plasma DPP4. Type of test: cell-free.
Test [6] concerns the target Dipeptidyl peptidase 9 (Homo sapiens, UniProt Q86TI2). Briefly: Inhibition of DPP9.

Chain of Dipeptidyl peptidase 9 (Q86TI2 whole entry): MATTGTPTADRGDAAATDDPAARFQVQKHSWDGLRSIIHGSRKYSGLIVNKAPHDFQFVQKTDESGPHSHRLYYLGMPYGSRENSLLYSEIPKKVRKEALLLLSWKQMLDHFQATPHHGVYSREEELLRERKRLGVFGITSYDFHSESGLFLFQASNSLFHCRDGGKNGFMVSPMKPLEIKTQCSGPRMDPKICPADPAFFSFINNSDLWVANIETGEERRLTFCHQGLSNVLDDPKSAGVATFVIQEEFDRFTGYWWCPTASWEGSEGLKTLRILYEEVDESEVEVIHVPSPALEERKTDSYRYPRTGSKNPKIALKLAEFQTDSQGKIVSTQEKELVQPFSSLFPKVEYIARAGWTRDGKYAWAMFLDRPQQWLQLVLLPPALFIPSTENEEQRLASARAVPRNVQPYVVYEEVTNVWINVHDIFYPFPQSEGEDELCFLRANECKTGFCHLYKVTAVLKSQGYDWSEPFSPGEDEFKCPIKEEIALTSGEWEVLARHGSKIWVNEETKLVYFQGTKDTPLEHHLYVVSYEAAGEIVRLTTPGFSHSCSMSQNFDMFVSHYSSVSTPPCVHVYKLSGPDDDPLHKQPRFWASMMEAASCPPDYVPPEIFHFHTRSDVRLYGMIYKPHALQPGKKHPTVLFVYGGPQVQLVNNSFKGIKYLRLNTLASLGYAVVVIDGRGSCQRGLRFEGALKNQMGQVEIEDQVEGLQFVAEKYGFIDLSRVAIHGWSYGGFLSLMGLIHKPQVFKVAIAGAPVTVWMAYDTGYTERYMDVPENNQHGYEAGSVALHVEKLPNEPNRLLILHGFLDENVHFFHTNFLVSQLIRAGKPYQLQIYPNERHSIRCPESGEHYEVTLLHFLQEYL
Chain of Dipeptidyl peptidase 4 (P27487 whole entry): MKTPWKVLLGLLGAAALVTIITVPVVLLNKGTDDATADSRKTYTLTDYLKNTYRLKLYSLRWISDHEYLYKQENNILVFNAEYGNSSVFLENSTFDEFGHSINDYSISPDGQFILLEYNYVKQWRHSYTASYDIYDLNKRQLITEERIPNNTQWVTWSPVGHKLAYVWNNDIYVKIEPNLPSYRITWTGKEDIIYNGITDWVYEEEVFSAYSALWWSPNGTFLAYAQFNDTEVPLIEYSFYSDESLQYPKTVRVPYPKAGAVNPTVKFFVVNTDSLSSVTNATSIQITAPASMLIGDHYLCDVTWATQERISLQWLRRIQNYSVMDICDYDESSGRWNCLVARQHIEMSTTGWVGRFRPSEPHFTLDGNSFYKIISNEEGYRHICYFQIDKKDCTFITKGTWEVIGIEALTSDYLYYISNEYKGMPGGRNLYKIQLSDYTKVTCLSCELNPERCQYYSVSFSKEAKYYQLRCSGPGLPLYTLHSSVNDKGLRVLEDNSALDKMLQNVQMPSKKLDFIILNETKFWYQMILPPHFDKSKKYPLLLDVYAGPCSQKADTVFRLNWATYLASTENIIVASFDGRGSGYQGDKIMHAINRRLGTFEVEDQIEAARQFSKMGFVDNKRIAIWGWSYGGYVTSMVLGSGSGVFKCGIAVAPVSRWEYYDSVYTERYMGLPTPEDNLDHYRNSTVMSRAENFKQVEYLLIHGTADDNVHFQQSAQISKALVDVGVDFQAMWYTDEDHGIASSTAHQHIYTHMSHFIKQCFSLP

`N#Cc1cccnc1N1C[C@@H]2[C@H](C1)[C@H]2NCC(=O)N1C[C@@H](F)C[C@H]1C#N`: the IC50 in test [1] is more than 10 µM; in test [2], 1.34 µM. Compound `CNC(=O)c1ccc(N2C[C@@H]3[C@H](C2)[C@H]3NCC(=O)N2C[C@@H](F)C[C@H]2C#N)cc1` came in with a 50% inhibitory concentration (IC50) in test [1] of more than 10 µM.

As for `N#C[C@@H]1C[C@H](F)CN1C(=O)CN[C@H]1[C@@H]2CN(c3ccc(C(=O)NC4CC4)cc3)C[C@@H]21`, the IC50 in test [1] was more than 10 µM. For the compound `N#C[C@@H]1C[C@H](F)CN1C(=O)CN[C@H]1[C@@H]2CN(c3ccc(Cl)cn3)C[C@@H]21`, the IC50 in test [1] is more than 10 µM; in test [2] it was 8.75 µM; in test [3], 9.04 µM.

As to `N#Cc1ccccc1N1C[C@@H]2[C@H](C1)[C@H]2NCC(=O)N1C[C@@H](F)C[C@H]1C#N`, the IC50 in test [2] was 0.406 µM; in test [3], more than 10 µM. In test [2], `N#Cc1ccc(N2C[C@@H]3[C@H](C2)[C@H]3NCC(=O)N2C[C@@H](F)C[C@H]2C#N)cc1` showed an IC50 of 18.1 µM. As to `N#Cc1ccc(N2C[C@@H]3[C@H](C2)[C@H]3NCC(=O)N2C[C@@H](F)C[C@H]2C#N)c(F)c1`, the IC50 is 2.76 µM in test [2] and more than 10 µM in test [3]. In the case of `N#Cc1c(Cl)cccc1N1C[C@@H]2[C@H](C1)[C@H]2NCC(=O)N1C[C@@H](F)C[C@H]1C#N`, the IC50 in test [1] is more than 10 µM; in test [4], more than 10 µM; in test [2], 0.096 µM. Consider `N#Cc1ccc(N2C[C@@H]3[C@H](C2)[C@H]3NCC(=O)N2C[C@@H](F)C[C@H]2C#N)cc1F`, for which the 50% inhibitory concentration (IC50) in test [1] was more than 10 µM; in test [2], 1.2 µM; in test [3], 9.94 µM. As to `N#C[C@@H]1C[C@H](F)CN1C(=O)CN[C@H]1[C@@H]2CN(c3ccc([N+](=O)[O-])cn3)C[C@@H]21`, the IC50 in test [2] stood at 13 µM; in test [3], 8.5 µM. Regarding `N#Cc1c(F)cccc1N1C[C@@H]2[C@H](C1)[C@H]2NCC(=O)N1C[C@@H](F)C[C@H]1C#N`, the IC50 in test [4], in test [2] and in test [3] was more than 10 µM throughout. As to `N#Cc1cc(F)ccc1N1C[C@@H]2[C@H](C1)[C@H]2NCC(=O)N1C[C@@H](F)C[C@H]1C#N`, the IC50 in test [2] and in test [3] was more than 10 µM each time. As to `N#C[C@@H]1C[C@H](F)CN1C(=O)CN[C@H]1[C@@H]2CN(c3nccs3)C[C@@H]21`, the results for the IC50 in test [2] and in test [3] were 11 µM and more than 100 µM, respectively. In test [2], `CCOC(=O)c1ccc(N2C[C@@H]3[C@H](C2)[C@H]3NCC(=O)N2C[C@@H](F)C[C@H]2C#N)cc1` showed an IC50 of 9.88 µM. As to `N#C[C@@H]1C[C@H](F)CN1C(=O)CN[C@H]1[C@@H]2CN(c3ccc(C(N)=O)cc3)C[C@@H]21`, the half-inhibitory concentration (IC50) was more than 10 µM in test [1] and 21.8 µM in test [2]. With `N#C[C@@H]1C[C@H](F)CN1C(=O)CN[C@H]1[C@@H]2CN(c3ccc(C(F)(F)F)cn3)C[C@@H]21`, the IC50 in test [2] is 4 µM; in test [3], more than 100 µM. The like results for `N#C[C@@H]1C[C@H](F)CN1C(=O)CN[C@H]1[C@@H]2CN(c3nc4ccccc4s3)C[C@@H]21` were, in that order, 5.1 µM and more than 10 µM. For the compound `N#C[C@@H]1C[C@H](F)CN1C(=O)CN[C@H]1[C@@H]2CN(c3nc4ccccc4o3)C[C@@H]21`, the IC50 in test [2] was 5.1 µM; in test [3] it was more than 100 µM. On the same counts, the results for `N#C[C@@H]1C[C@H](F)CN1C(=O)CN[C@H]1[C@@H]2CN(c3ncccc3[N+](=O)[O-])C[C@@H]21` are 6.42 µM and more than 10 µM.

`N#Cc1ccc(N2C[C@@H]3[C@H](C2)[C@H]3NCC(=O)N2CC(F)(F)C[C@H]2C#N)nc1` showed an IC50 in test [2] of 2.8 µM. `N#Cc1ccc(N2C[C@@H]3[C@H](C2)[C@H]3NCC(=O)N2CCSC2)nc1` displayed an IC50 in test [5] of more than 10 µM. Take `N#Cc1cc(C(F)(F)F)ccc1N1C[C@@H]2[C@H](C1)[C@H]2NCC(=O)N1C[C@@H](F)C[C@H]1C#N`: the IC50 in test [2] is 4.33 µM; in test [3] it was more than 100 µM. `CC(=O)c1ccc(N2C[C@@H]3[C@H](C2)[C@H]3NCC(=O)N2C[C@@H](F)C[C@H]2C#N)cc1`: the results for the IC50 in test [1] and in test [2] were more than 10 µM and 9 µM, respectively. Take `N#Cc1cc(F)cc(N2C[C@@H]3[C@H](C2)[C@H]3NCC(=O)N2C[C@@H](F)C[C@H]2C#N)c1`: the IC50 in test [2] amounted to 1.8 µM; in test [3], 9.15 µM. For `N#Cc1cccc(F)c1N1C[C@@H]2[C@H](C1)[C@H]2NCC(=O)N1C[C@@H](F)C[C@H]1C#N`, the IC50 was 1.3 µM in test [2] and more than 10 µM in test [3]. Regarding `N#Cc1ccc(N2C[C@@H]3[C@H](C2)[C@H]3NCC(=O)N2C[C@@H](F)C[C@H]2C#N)c(C(F)(F)F)c1`, the IC50 in test [2] stood at 1 µM; in test [3], 2.1 µM. For the compound `N#Cc1ccc(N2C[C@@H]3[C@H](C2)[C@H]3NCC(=O)N2C[C@@H](F)C[C@H]2C#N)cc1Cl`, the IC50 in test [2] stood at 0.907 µM. The same measure, in the same setting: in the case of `N#Cc1ccc(N2C[C@@H]3[C@H](C2)[C@H]3NCC(=O)N2C[C@@H](F)C[C@H]2C#N)c(Cl)c1` it was 1 µM. For the compound `N#C[C@@H]1C[C@H](F)CN1C(=O)CN[C@H]1[C@@H]2CN(c3cnc4ccccc4n3)C[C@@H]21`, the IC50 was 0.226 µM in test [2] and more than 10 µM in test [3]. `N#C[C@@H]1C[C@H](F)CN1C(=O)CN[C@H]1[C@@H]2CN(c3ncccn3)C[C@@H]21`: the IC50 in test [6] is more than 100 µM; in test [2] it was 16.5 µM. `N#C[C@@H]1C[C@H](F)CN1C(=O)CN[C@H]1[C@@H]2CN(c3nccc(C(F)(F)F)n3)C[C@@H]21`: the IC50 in test [2] is 2.2 µM; in test [3], more than 100 µM. In turn, `N[C@@H](CCCCNC(=O)OCc1ccc([N+](=O)[O-])cc1)C(=O)N1CCCC1` registered an IC50 in test [1] of 0.839 µM. Turning to `N#C[C@@H]1C[C@H](F)CN1C(=O)CN[C@H]1[C@@H]2CN(c3ccccn3)C[C@@H]21`, the IC50 in test [1] was more than 10 µM; in test [2], 10.8 µM; in test [3], 1.42 µM. For the compound `N#Cc1ccc(N2C[C@@H]3[C@H](C2)[C@H]3NCC(=O)N2C[C@@H](F)C[C@H]2C#N)nc1`, the IC50 is 11 µM in test [2] and more than 100 µM in test [3]. On the same counts, the results for `N#Cc1c(N2C[C@@H]3[C@H](C2)[C@H]3NCC(=O)N2C[C@@H](F)C[C@H]2C#N)cccc1C(F)(F)F` are 1.3 µM and more than 10 µM. The like results for `N#Cc1c(F)cc(N2C[C@@H]3[C@H](C2)[C@H]3NCC(=O)N2C[C@@H](F)C[C@H]2C#N)cc1F` were, in that order, 10.9 µM and 9.7 µM. On the same counts, the results for `N#Cc1c(F)cc(F)cc1N1C[C@@H]2[C@H](C1)[C@H]2NCC(=O)N1C[C@@H](F)C[C@H]1C#N` are 3.9 µM and 8.7 µM. Consider `NCC[C@H](N)C(=O)N1CCCCC1`, for which the IC50 in test [2] is 0.163 µM. Consider `N#C[C@@H]1CCCN1C(=O)CNC12CC3CC(CC(O)(C3)C1)C2` [VILDAGLIPTIN], for which the IC50 in test [1] was more than 10 µM.
